The values that follow come from ChEMBL document CHEMBL2157906, “Identification of a dual δ OR antagonist/μ OR agonist as a potential therapeutic for diarrhea-predominant Irritable Bowel Syndrome (IBS-d)” (Bioorg Med Chem Lett, 2012).

The source made the active and inactive calls. The rule behind the calls is not given here. Bounds are passed on as bounds.

The target of data set [1] is Delta-type opioid receptor (Rattus norvegicus, UniProt P33533). The data set is described as follows: Binding affinity to rat delta opioid receptor.
Delta-type opioid receptor (Rattus norvegicus, UniProt P33533), sequence (P33533 whole entry): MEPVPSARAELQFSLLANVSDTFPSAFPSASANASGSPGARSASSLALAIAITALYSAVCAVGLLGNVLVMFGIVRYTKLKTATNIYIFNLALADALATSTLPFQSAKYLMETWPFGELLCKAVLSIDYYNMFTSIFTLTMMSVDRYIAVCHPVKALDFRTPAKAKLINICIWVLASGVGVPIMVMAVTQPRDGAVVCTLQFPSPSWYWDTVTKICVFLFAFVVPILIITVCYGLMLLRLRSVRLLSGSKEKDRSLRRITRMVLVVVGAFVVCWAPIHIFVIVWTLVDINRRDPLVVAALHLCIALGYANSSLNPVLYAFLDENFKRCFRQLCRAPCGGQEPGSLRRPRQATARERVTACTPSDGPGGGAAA
Data set [2] addresses Mu-type opioid receptor (Rattus norvegicus, UniProt P33535). Nature of the data set: Binding affinity to rat mu opioid receptor.
Data set [3] addresses T1, Delta-type opioid receptor (Homo sapiens, UniProt P41143). Nature of the data set: Agonist activity at delta opioid receptor expressed in CHO-hg cells by [35S]-GTPgammaS binding assay. It is filed as functional, cell-based.
In data set [4] the target is T2, Kappa-type opioid receptor (Cavia porcellus, UniProt P41144). Nature of the data set: Binding affinity to guinea pig kappa opioid receptor.
T2 sequence (P41144 whole entry): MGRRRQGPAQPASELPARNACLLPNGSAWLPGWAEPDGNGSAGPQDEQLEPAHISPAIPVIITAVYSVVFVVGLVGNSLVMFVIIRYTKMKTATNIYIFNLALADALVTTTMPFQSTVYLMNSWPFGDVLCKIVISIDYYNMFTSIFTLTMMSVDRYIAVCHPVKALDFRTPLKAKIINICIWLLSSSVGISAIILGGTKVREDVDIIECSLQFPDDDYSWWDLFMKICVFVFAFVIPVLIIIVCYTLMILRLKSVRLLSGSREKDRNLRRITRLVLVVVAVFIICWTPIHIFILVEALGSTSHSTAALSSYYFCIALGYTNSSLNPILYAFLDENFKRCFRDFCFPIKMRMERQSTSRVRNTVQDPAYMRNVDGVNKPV
Data set [5] has as its target T2, Kappa-type opioid receptor. Nature of the data set: Agonist activity at kappa opioid receptor guinea pig colon tissue. Format: functional, tissue-based.
For data set [6], the target named is T3, Mu-type opioid receptor (Homo sapiens, UniProt P35372). Nature of the data set: Agonist activity at mu opioid receptor expressed in CHO-hg cells by [35S]-GTPgammaS binding assay. Format: functional, cell-based.
T3 sequence (P35372 whole entry): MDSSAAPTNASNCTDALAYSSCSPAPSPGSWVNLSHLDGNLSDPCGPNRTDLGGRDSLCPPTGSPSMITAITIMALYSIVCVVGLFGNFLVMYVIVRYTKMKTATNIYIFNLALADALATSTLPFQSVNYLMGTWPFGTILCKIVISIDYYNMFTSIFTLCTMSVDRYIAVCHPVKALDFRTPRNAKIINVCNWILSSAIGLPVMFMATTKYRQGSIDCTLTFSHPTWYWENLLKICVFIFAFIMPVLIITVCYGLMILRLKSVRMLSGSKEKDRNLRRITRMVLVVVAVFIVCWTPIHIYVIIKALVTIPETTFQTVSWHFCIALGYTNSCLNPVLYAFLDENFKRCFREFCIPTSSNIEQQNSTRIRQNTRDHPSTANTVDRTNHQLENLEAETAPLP
Data set [7] can be described thus: Solubility of the compound at pH 7.4. As to conditions: buffer. Format: physicochemical.
The nature of data set [8]: Half life in human liver microsomess. Format: ADME, Microsome. As to conditions: liver microsomes.
Data set [9] addresses Voltage-gated inwardly rectifying potassium channel KCNH2 (Homo sapiens, UniProt Q12809). The data set is described as follows: Displacement of [3H]-astemizole from human ERG.
Data set [10] concerns the target Cytochrome P450 3A4 (Homo sapiens, UniProt P08684). Nature of the data set: Inhibition of CYP3A4 in human liver microsomes. Format: ADME, Microsome.
The target of data set [11] is T3, Mu-type opioid receptor. Nature of the data set: Binding affinity to human mu opioid receptor.
For data set [12], the target named is T1, Delta-type opioid receptor. Nature of the data set: Antagonist activity at delta opioid receptor expressed in CHO-hg cells assessed as inhibition of SNC-80-induced [35S]-GTPgammaS binding. It is filed as functional, cell-based.
Data set [13] can be described thus: Antagonist activity at delta opioid receptor in hamster vas deferens tissue. Format: functional, tissue-based. To be noted: Cricetinae.

T1 sequence (P41143 whole entry): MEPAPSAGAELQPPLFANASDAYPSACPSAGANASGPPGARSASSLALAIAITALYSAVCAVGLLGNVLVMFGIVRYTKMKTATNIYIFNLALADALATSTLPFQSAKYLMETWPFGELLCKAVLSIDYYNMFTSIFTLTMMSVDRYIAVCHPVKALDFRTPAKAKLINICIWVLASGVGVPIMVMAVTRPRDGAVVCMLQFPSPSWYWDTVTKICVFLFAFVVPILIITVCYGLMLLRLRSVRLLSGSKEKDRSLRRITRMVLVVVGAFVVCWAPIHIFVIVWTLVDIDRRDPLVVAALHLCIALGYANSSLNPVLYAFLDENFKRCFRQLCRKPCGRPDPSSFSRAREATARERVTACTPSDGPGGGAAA
Mu-type opioid receptor (Rattus norvegicus, UniProt P33535), sequence (P33535 whole entry): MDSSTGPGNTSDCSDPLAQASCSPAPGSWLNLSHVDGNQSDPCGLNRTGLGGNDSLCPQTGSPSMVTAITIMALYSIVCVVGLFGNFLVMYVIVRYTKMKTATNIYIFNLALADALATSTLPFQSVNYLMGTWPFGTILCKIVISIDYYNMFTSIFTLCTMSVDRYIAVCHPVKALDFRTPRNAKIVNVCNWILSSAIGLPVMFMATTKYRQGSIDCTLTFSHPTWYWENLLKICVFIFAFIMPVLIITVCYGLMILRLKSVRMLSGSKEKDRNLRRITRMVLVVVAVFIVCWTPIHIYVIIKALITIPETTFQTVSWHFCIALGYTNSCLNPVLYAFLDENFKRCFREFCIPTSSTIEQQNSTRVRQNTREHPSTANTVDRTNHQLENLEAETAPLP
Voltage-gated inwardly rectifying potassium channel KCNH2, sequence (Q12809 whole entry): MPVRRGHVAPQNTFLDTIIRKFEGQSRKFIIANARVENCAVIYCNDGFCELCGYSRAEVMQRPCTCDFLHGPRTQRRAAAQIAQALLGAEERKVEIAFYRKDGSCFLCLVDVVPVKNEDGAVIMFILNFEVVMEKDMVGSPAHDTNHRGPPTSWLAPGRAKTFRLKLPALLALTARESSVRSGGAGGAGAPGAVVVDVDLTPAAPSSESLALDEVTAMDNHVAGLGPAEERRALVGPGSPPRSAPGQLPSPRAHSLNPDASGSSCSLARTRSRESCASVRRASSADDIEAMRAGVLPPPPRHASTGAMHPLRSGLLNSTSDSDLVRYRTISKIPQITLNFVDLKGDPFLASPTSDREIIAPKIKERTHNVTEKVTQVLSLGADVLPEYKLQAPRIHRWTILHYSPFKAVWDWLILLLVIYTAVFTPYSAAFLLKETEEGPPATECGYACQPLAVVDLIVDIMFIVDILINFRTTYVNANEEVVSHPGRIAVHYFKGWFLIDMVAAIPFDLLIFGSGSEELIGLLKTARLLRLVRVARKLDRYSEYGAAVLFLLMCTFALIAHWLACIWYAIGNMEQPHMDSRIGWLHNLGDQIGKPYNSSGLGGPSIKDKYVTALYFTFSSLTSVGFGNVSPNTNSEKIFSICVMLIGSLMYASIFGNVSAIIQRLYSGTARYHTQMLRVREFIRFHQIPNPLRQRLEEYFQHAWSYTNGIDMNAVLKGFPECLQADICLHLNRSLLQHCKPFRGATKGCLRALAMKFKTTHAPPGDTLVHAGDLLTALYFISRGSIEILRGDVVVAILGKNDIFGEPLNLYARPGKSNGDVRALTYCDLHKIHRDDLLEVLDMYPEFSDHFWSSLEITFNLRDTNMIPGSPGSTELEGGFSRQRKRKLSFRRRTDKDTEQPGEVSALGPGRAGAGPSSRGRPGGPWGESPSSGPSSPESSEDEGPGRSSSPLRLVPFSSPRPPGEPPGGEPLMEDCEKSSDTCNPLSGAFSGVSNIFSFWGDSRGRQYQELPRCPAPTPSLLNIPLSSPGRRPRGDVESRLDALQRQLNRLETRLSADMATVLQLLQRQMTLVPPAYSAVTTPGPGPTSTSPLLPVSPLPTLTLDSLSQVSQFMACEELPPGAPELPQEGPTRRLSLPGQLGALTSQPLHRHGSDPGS
Cytochrome P450 3A4, sequence (P08684 whole entry): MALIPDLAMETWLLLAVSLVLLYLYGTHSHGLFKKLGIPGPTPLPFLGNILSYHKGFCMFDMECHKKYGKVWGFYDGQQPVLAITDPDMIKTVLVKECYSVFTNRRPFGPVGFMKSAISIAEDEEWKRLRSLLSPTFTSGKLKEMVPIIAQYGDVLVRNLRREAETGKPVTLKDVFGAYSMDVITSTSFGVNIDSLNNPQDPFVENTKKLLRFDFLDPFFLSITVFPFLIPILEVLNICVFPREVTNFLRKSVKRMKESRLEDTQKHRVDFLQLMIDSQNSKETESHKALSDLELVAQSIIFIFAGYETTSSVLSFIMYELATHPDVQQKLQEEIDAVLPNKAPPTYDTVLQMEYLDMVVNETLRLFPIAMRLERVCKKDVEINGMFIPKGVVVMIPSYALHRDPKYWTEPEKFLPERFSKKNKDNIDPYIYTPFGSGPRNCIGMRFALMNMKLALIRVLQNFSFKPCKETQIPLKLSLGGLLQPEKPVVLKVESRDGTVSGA

As to `COc1ccc(CN(C(=O)[C@@H](N)Cc2c(C)cc(C(N)=O)cc2C)[C@@H](C)c2nc(-c3ccccc3)c[nH]2)cc1C(=O)O` [ELUXADOLINE], the Ki amounted to 1.3 nM in data set [1], 0.9 nM in data set [2] and 55 nM in data set [4]. For the same compound, the EC50 is > 10000 nM in data set [3] and 1600 nM in data set [5].

Consider `Cc1cc(O)cc(C)c1C[C@H](N)C(=O)N(C(C)C)[C@@H](C)c1nc(-c2ccccc2)c[nH]1`, for which the Ki in [1] was 1.4 nM; in data set [2] it was 0.03 nM. Further, in data set [3], the concentration giving a half-maximal response (EC50) came to 103 nM.

On to `Cc1cc(O)cc(C)c1C[C@H](N)C(=O)N(Cc1ccccc1)[C@@H](C)c1nc(-c2ccccc2)c[nH]1`, for which the affinity in [1] corresponds to a Ki of 1.5 nM.

`Cc1cc(O)cc(C)c1C[C@H](N)C(=O)N[C@@H](Cc1ccccc1)c1nc(-c2ccccc2)c[nH]1`: affinity in [2] was put at a Ki of 13 nM.

On to `Cc1cc(O)cc(C)c1C[C@H](N)C(=O)N1CCCC[C@H]1c1nc(-c2ccccc2)c[nH]1`, for which the EC50 was 37 nM in [3] and 2 nM in data set [6].

With `COc1ccc(CN(C(=O)[C@@H](N)Cc2c(C)cc(C(N)=O)cc2C)C(C)c2nc(-c3ccccc3)c[nH]2)cc1C(=O)O.Cl.Cl` (single isomer, unassigned), the solubility in [7] is > 1000 µg/mL. The compound also returned a half-life in data set [8] of 2.5 h. Further, the figures for the IC50 in data set [9] and in [10] were > 10000 nM and > 20000 nM, respectively. Moreover, the affinity in data set [11] corresponds to a Ki of 1.7 nM.

Regarding `Cc1cc(O)cc(C)c1C[C@H](N)C(=O)N(Cc1nc(-c2ccccc2)c[nH]1)C(C)C`, the figures for the Ki in data set [1] and in data set [2] were 15 nM and 0.1 nM, respectively.

For the compound `COc1ccc(CN(C(=O)[C@@H](N)Cc2c(C)cc(C(N)=O)cc2C)[C@@H](C)c2ncc(-c3ccccc3)[nH]2)cc1C(=O)O` [ELUXADOLINE], in data set [12], the inhibition result was “Active”. In addition, the IC50 in data set [13] came out at 89 nM.

Turning to `Cc1cc(C(N)=O)cc(C)c1C[C@H](N)C(=O)N1CCCC[C@H]1c1nc(-c2ccccc2)c[nH]1`, the EC50 is 135 nM in data set [3] and 9 nM in [6].

For `Cc1cc(C(N)=O)cc(C)c1C[C@H](N)C(=O)N(Cc1cccc(C(=O)O)c1)[C@@H](C)c1nc(-c2ccccc2)c[nH]1`, the inhibition constant (Ki) in data set [1] turned out to be 0.5 nM; in data set [2] it was 1 nM. Moreover, in [3], the EC50 is > 10000 nM. For the same compound, the inhibition entry in [12] is “Active”.

As for `N[C@@H](Cc1ccc(O)cc1)C(=O)N1Cc2ccccc2C[C@H]1c1nc(-c2ccccc2)c[nH]1`, the EC50 in [3] was determined as 19 nM; in data set [6], 2440 nM.

Take `Cc1cc(C(N)=O)cc(C)c1C[C@H](N)C(=O)N(Cc1ccccc1)[C@@H](C)c1nc(-c2ccccc2)c[nH]1`: the affinity in data set [2], expressed as Ki, was 0.3 nM. That is a sub-nanomolar value.

Compound `Cc1cc(O)cc(C)c1C[C@H](N)C(=O)N(C)[C@@H](C)c1nc(-c2ccccc2)c[nH]1` had a Ki in [1] of 15 nM.

Turning to `Cc1cc(O)cc(C)c1C[C@H](N)C(=O)N1Cc2ccccc2C[C@H]1c1nc(-c2ccccc2)c[nH]1`, the EC50 in [3] stood at 0.9 nM; in [6], 27 nM.

For `Cc1cc(C(N)=O)cc(C)c1C[C@H](N)C(=O)N1Cc2ccccc2C[C@H]1c1nc(-c2ccccc2)c[nH]1`, the EC50 came out at 22 nM in data set [3] and 161 nM in data set [6].
